This passage reports IC50, EC50 and AC50 results from ChEMBL document CHEMBL1201862, “PubChem BioAssay data set” (2004).

Usually IC50 stands for the concentration at which inhibition is half-maximal. The EC50 is the midpoint of the concentration-response curve. The term AC50 denotes the concentration at which the activity in the assay is half-maximal.

A short description of assay [1]: HEK-293T viability loss after treatment – luminescence, T-cell screen hits, cytotoxicity control for TCR NF-kB inhibitor project, dose response (AID 489026).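 Also: cells exposed to compound about 14 hours before the viability readout.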 In kind it is functional, cell-based.
In assay [2] the test system is BJ. Briefly: growth inhibition of engineered Ras-driven BJ cells – cell-based, alamar blue fluorescence, cherrypicked samples, dose response (AID 2631).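 Also: confirmatory dose-response assay in RAS-dependent BJ fibroblasts engineered with TERT, LT and ST, with cytotoxicity read by fluorescence.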 It counts as functional. The settings on record: Homo sapiens. In general terms: Resazurin is reduced to fluorescent resorufin, in cell work by metabolically active cells.
The nature of assay [3]: Luminescence Cell-Based Dose Retest to Confirm Inhibitors of Cancer Stem Cells. [Related pubchem assays (depositor defined):AID2717, AID2721]. In kind it is functional. The settings on record: Homo sapiens.
Assay [4] relates to BJ. As to the kind of experiment: cells. In kind it is functional, cell-based. The settings on record: Homo sapiens.
A short description of assay [5]: DRD fibroblast viability loss – cell-based, non-viral oncogenic, luminescence, dose response (AID 1934). In kind it is functional. The settings on record: Homo sapiens.
For assay [6], the system named is BJ. Briefly: BJ-TERT fibroblast viability loss – cell-based, RAS-independent, luminescence, dose response (AID 1933). It counts as functional. The settings on record: Homo sapiens.
Assay [7] is described as follows: viability loss of HMLE_sh_eGFP cells – cell-based, luminescence, counter-screen for HMLE_sh_ECad selective toxicity project, dose response (AID 463074).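 Also: HMLE human mammary epithelial cells expressing control shRNA against eGFP.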 It counts as functional, Homo sapiens.
The target of assay [8] is T1, Tyrosine-protein phosphatase non-receptor type 22 (Homo sapiens, UniProt Q9Y2R2).
T1 sequence (Q9Y2R2 whole entry): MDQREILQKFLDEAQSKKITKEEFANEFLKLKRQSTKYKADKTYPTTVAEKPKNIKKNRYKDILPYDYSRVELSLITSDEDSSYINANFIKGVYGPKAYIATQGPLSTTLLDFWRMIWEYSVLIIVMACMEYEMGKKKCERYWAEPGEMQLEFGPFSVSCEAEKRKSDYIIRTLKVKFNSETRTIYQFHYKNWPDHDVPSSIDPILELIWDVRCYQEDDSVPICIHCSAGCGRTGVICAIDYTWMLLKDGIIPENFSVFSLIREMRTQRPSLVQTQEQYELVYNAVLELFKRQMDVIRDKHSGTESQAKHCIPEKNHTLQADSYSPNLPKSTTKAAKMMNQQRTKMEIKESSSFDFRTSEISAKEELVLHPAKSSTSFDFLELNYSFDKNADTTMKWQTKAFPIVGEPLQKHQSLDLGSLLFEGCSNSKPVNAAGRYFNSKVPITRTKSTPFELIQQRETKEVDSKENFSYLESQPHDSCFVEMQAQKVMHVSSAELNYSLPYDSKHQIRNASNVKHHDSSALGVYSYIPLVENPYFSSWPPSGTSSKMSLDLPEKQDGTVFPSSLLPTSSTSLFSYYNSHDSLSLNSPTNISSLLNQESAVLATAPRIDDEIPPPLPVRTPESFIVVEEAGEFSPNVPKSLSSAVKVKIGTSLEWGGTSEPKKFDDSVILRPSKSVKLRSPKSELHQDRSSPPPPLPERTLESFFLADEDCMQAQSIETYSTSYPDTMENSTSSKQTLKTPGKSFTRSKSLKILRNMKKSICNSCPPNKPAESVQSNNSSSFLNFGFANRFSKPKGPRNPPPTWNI
It counts as functional.

In assay [9] the target is T1, Tyrosine-protein phosphatase non-receptor type 22. It counts as functional. This is another data set of the same source.
In assay [10] the target is T2, Tyrosine-protein phosphatase non-receptor type 7 (Homo sapiens, UniProt P35236).
T2 sequence (P35236 whole entry): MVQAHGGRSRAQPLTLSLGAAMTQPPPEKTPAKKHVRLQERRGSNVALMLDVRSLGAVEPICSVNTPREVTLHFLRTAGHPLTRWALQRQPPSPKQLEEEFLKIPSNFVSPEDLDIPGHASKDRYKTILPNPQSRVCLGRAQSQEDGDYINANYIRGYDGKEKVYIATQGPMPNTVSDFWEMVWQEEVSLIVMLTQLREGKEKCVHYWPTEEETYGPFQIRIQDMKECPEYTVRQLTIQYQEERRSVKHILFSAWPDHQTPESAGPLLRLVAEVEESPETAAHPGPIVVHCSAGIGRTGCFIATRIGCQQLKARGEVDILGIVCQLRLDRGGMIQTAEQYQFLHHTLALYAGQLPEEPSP
In kind it is functional.

For assay [11], the system named is BJ. Briefly: BJ-TERT-LT-ST fibroblast viability loss – cell-based, RAS-independent, luminescence, dose response (AID 1935).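 Also: BJ fibroblasts immortalized with TERT plus LT and ST oncogenes.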 It counts as functional. The conditions noted are these: Homo sapiens.
The nature of assay [12]: toxicity toward HepG2 liver cells – cell-based, plate reader, cherry-pick, antagonist series, cytotoxicity control, dose response (AID 743416). In kind it is functional.
The nature of assay [13]: HEK-293T viability loss, compound-treated – cell-based, uHTS hits, cytotoxicity control for B/T-cell NF-kB inhibitor project, dose response (AID 489019).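 Also: IC50 reflects cytotoxicity as loss of cell viability.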 In kind it is functional.
Assay [14] is described as follows: reduction of Shn3 3'UTR-driven luciferase in osteoblasts – cell-based, Clone20 osteoblasts, firefly luciferase, cherry-picked, dose response (AID 624132).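 Also: firefly luciferase luminescence from reporter carrying the Shn3 3'UTR in osteoblasts.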 It counts as functional.
In a further assay the test system is Jurkat. Briefly: blockers of NF-kB activation in T cells – Jurkat, luciferase reporter, luminescence, B- and T-cell, dose response (AID 489004).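 Also: NF-kB luciferase reporter Jurkat cells stimulated with PMA plus ionomycin.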 In kind it is functional, cell-based. The settings on record: Homo sapiens. On the technique in general: Reporter assays use an easily measured gene product as a stand-in for the process of interest.
Assay [15] is described as follows: Luminescence-based counterscreen assay for KLF5 inhibitors: dose response cell-based high throughput screening assay to identify cytotoxic compounds using the IEC-6 intestinal epithelial cell line. [Related pubchem assays: 1700 (Primary screen.), 1834 (Confirmation screen.), 1858 (Summary AID.), 1905 (Counterscreen.)]. In kind it is functional. In general terms: A counterscreen serves to expose hits that act by an unwanted route or on another target.

A short description of assay [16]: blockade of melanocortin 4 receptor signaling – cell-based, plate reader, cherry pick, counter-screen for LGR2 antagonist project, dose response (AID 743444).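 Also: transfected HEK 293 cells stimulated with alpha-MSH peptide; potency of inhibitors of the alpha-MSH evoked signal.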 In kind it is functional.
Assay [17] is described as follows: Luminescence Cell-Based Dose Confirmation HTS to Identify Inhibitors of Platelet Dense Granule Release. [Related pubchem assays: 1663 (Primary HTS), 1678 (Summary of Project)]. It counts as functional.
The target in another assay is T3, Protein skinhead-1 (Caenorhabditis elegans, UniProt P34707).
T3 sequence (P34707 whole entry): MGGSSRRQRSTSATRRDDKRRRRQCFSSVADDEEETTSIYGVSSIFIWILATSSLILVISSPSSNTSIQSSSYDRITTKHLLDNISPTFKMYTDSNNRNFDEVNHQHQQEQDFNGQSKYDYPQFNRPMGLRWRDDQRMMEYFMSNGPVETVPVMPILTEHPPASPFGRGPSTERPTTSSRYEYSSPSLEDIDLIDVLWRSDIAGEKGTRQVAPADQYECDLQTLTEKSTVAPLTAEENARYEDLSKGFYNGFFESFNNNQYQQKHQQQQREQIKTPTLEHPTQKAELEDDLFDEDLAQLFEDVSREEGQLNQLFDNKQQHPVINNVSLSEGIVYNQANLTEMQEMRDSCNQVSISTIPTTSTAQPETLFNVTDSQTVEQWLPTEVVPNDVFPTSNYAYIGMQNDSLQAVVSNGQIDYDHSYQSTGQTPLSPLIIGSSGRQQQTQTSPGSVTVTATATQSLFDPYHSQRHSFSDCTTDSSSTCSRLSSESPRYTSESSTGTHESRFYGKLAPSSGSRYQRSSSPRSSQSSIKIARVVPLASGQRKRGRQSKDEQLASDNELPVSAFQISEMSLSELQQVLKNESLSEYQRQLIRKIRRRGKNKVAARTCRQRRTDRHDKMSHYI
In kind it is functional.

Assay [18] can be described thus: A549 cell cytotoxicity, dose response, cytotoxicity control, plate reader, cherry-pick, antagonist series (AID 743412). In kind it is functional, cell-based.
Assay [19] is described as follows: viability loss in HEK293 cells – cell-based, plate reader, cherry-picked samples, cytotoxicity control, dose response (AID 743446). In kind it is functional.
Assay [20] can be described thus: loss of viability in HepG2 cells – cell-based, CellTiter-Glo, cherry-picked, cytotoxicity control for Shn3 inhibitor project, dose response (AID 624134). In kind it is functional.
Assay [21] is described as follows: blockers of bursicon-stimulated LGR2 cAMP reporter – cell-based, HEK293, CRE-luciferase reporter, cherry pick, set 2, dose response (AID 743343).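 Also: transfected cells were stimulated with diluted bursicon conditioned medium after compound addition.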 In kind it is functional.
The nature of assay [22]: non-specific 3'UTR reporter inhibition in Clone20-Shn3RL – cell-based, Renilla luciferase, cherry-picked, counter-screen for Shn3 inhibitor project, dose response (AID 624133). It counts as functional.
Assay [23] has as its target T4, Heat shock factor protein 1 (Mus musculus, UniProt P38532).
T4 sequence (P38532 whole entry): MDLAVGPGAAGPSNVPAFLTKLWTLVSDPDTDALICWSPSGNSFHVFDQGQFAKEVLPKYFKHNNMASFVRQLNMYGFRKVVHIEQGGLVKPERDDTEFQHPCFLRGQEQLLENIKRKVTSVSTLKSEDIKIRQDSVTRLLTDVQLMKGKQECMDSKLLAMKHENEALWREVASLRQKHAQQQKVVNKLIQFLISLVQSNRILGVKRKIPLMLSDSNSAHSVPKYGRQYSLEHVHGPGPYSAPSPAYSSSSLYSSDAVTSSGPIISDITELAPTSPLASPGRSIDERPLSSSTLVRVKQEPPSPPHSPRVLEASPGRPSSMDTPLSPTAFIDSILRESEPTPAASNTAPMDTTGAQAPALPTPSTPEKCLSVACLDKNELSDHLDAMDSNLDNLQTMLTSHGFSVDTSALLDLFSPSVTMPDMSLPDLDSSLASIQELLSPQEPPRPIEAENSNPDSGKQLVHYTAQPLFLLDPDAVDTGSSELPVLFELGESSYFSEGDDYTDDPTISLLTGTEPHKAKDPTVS
As to the kind of experiment: decrease of HSF1-responsive luciferase luminescence – cell-based, NIH3T3, dose retest, confirmation (AID 2382).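 Also: NIH3T3 fibroblasts with HSF1-driven luciferase reporter stressed by proteasome inhibitor MG132; luminescence from HSF1-driven luciferase expression after 8 hours of MG132 stress.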 In kind it is functional.

Assay [24] has as its target G-protein coupled receptor 55 (Homo sapiens, UniProt Q9Y2T6). As to the kind of experiment: blockers of GPR55 signalling, imaged – imaging, image-based, counter-screen for GPR35 antagonist project, SAR follow-up (AID 2397). It counts as functional.

Structures are written as SMILES. Activity calls are given as the source filed them. Where only a bound is given, the exact number is not on record here.

G-protein coupled receptor 55, sequence (Q9Y2T6 whole entry): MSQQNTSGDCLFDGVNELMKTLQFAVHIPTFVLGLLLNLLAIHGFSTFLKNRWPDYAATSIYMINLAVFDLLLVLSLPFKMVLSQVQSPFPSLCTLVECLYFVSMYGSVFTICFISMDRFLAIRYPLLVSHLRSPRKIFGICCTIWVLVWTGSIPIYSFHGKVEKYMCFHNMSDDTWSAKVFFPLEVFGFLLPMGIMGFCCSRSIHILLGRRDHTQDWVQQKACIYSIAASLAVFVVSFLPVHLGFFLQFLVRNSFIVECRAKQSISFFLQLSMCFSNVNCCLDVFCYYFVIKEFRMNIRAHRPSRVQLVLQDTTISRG

As to `Cc1ccc(C)c(NS(=O)(=O)c2ccc(-c3cnc(C4CC4)o3)cc2)c1`, the IC50 in assay [1] is 54 µM (inactive). Moreover, the EC50 in the assay on BJ [2] is < 0.104 µM (active); in the assay with BJ [4], 0.298 µM (active); in [5], < 0.12 µM (active); with BJ [6] it was 0.15 µM (active). Also, the results for the AC50 in assay [3] and in [7] were < 0.16 µM (active) and 8.44 µM (inconclusive), respectively.

`O=C1OC(c2ccc(Br)cc2)=N/C1=C\c1ccco1`: the IC50 in assay [8], in [9] and in assay [10] was > 79.4 µM (inactive) throughout.

As to `c1ccc(-c2ccc(-c3nc(-c4ccccn4)no3)cc2)cc1`, the EC50 with BJ [11] was 9.38 µM (inconclusive); in assay [17], 0.189 µM (active); with BJ [2] it was > 133 µM (inactive); in the assay on BJ [4], 1.69 µM (active); in [5] it was 3.27 µM (active); in the assay with BJ [6] it was 3.64 µM (active). The EC50 in assay [23] is < 0.16 µM (active). The AC50 was 4.67 µM (active) in [12]; 3.75 µM (active) in [14]; 0.261 µM (active) in assay [16]; 5.48 µM (active) in assay [18]; 6.22 µM (active) in assay [19]; 5.26 µM (active) in assay [20]. The AC50 in assay [21] was 0.236 µM (active); in [22], 32.7 µM (active). The IC50 is > 80 µM (inactive) in assay [13], 1.17 µM (active) with Jurkat, 9.09 µM (active) in assay [15] and > 100 µM (inactive) at Protein skinhead-1.

For the compound `Clc1ccccc1Cn1ncc2c(N3CCN(c4ccccc4)CC3)ncnc21`, in assay [24], the IC50 was > 32 µM (inactive).

For `CN(C)/N=C/c1ccc(Sc2ccc([N+](=O)[O-])cc2[N+](=O)[O-])o1`, the AC50 in [3] was 22.5 µM (active); in assay [7] it was 30.2 µM (active).
